Test results from BindingDB's records for doi:10.1021/jm00114a002 (Abbott Laboratories, 1991).

Assay: Compound was tested in vitro for binding affinity for 5-hydroxytryptamine 1C receptor

| Ki [nM] | Structure (SMILES) |
| --- | --- |
| 58 | Cc1ccc2c(c1O)C[C@@H](C1CCCCC1)O[C@H]2CN |
| 200 | NC[C@@H]1O[C@H](c2ccccc2)Cc2c1ccc(Br)c2O |
